Laboratory results from US12723063B2, “GIPR-agonist compounds” (Eli Lilly and Company, priority 2019, dated 2026).
*1 amine or outer side, *2 acyl side, *3 side chain or, on linkers, in order; H or OH if unused. Where a SMILES comes first, the peptide text is derived from it. Side-chain parts run from the residue outwards. [ ]: non-standard residue; d: D form. The star is where a group is joined. C20 diacid = O=C(O)CCCCCCCCCCCCCCCCCCC(=O)*; γGlu = O=C(O)[C@H](CCC(=O)[*:2])N[*:1]; αMeF = C[C@](N)(Cc1ccccc1)C(=O)O; 4Pal = N[C@@H](Cc1ccncc1)C(=O)O; αMeL = CC(C)C[C@](C)(N)C(=O)O; AEEA = NCCOCCOCC(=O)O; Aib = CC(C)(N)C(=O)O

biological target: T1, human GIPR (Homo sapiens, UniProt P48546); assay: [125I]-GIP binding, SPA with WGA beads, 0.1% bacitracin; details: geometric mean, read-out: hGIPR Ki
T1 construct: expressed in transfected cells; crude membranes
T1 sequence (P48546 22-466): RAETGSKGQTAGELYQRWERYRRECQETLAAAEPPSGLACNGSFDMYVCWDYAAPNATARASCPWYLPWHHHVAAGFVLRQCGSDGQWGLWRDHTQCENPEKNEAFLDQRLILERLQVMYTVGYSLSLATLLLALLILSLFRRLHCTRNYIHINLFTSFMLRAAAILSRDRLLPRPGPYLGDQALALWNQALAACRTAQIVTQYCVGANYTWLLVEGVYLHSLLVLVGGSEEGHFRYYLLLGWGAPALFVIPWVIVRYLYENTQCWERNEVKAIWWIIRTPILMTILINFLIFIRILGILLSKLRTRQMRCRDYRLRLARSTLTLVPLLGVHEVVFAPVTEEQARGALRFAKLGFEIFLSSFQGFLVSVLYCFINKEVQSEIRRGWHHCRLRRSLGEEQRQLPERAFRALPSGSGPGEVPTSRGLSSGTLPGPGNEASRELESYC
Outline: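 Ki values are geometric means (SEM, n independent days), derived from four-parameter nonlinear regression of IC50. Membranes came from hGIPR-expressing CHO cells.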

Structure (SMILES)	Ki [nM]
CC[C@H](C)[C@H](NC(=O)[C@H](Cc1ccccc1)NC(=O)[C@@H](NC(=O)CNC(=O)[C@H](CCC(=O)O)NC(=O)C(C)(C)NC(=O)[C@@H](N)Cc1ccc(O)cc1)[C@@H](C)O)C(=O)N[C@@H](CO)C(=O)N[C@@H](CC(=O)O)C(=O)N[C@@H](Cc1ccc(O)cc1)C(=O)N[C@@H](CO)C(=O)N[C@H](C(=O)N[C@@](C)(CC(C)C)C(=O)N[C@@H](CC(C)C)C(=O)N[C@@H](CC(=O)O)C(=O)N[C@@H](CCCCN)C(=O)N[C@@H](CCCCNC(=O)COCCOCCNC(=O)COCCOCCNC(=O)CC[C@H](NC(=O)CCCCCCCCCCCCCCCCCCC(=O)O)C(=O)O)C(=O)N[C@@H](Cc1c[nH]cn1)C(=O)N[C@@H](CCC(N)=O)C(=O)NC(C)(C)C(=O)N[C@@H](CC(=O)O)C(=O)N[C@@H](Cc1ccccc1)C(=O)N[C@H](C(=O)N[C@@H](CCC(=O)O)C(=O)N[C@@H](Cc1ccc(O)cc1)C(=O)N[C@@H](CC(C)C)C(=O)N[C@@H](CC(C)C)C(=O)N[C@@H](CCC(=O)O)C(=O)N[C@H](C(=O)NCC(=O)N1CCC[C@H]1C(=O)N[C@@H](CO)C(=O)N[C@@H](CO)C(=O)NCC(=O)N[C@@H](C)C(=O)N1CCC[C@H]1C(=O)N1CCC[C@H]1C(=O)N1CCC[C@H]1C(=O)N[C@@H](CO)C(N)=O)[C@@H](C)O)C(C)C)[C@@H](C)CC [Example 66] (H-Y[Aib]EGTFISDYSI[αMeL]LDKK([AEEA-AEEA-γGlu-C20 diacid])HQ[Aib]DFVEYLLETGPSSGAPPPS-NH2)	0.0866
CC[C@H](C)[C@H](NC(=O)[C@H](CO)NC(=O)[C@H](Cc1ccc(O)cc1)NC(=O)[C@H](CC(=O)O)NC(=O)[C@H](CO)NC(=O)[C@@H](NC(=O)[C@](C)(Cc1ccccc1)NC(=O)[C@@H](NC(=O)CNC(=O)[C@H](CCC(=O)O)NC(=O)C(C)(C)NC(=O)[C@@H](N)Cc1ccc(O)cc1)[C@@H](C)O)[C@@H](C)CC)C(=O)N[C@@](C)(CC(C)C)C(=O)N[C@@H](CC(C)C)C(=O)N[C@@H](CC(=O)O)C(=O)N[C@@H](CCCCN)C(=O)N[C@@H](CCCCNC(=O)COCCOCCNC(=O)COCCOCCNC(=O)CC[C@H](NC(=O)CCCCCCCCCCCCCCCCCCC(=O)O)C(=O)O)C(=O)N[C@@H](Cc1c[nH]cn1)C(=O)N[C@@H](CCC(N)=O)C(=O)NC(C)(C)C(=O)N[C@@H](CCC(=O)O)C(=O)N[C@@H](Cc1ccccc1)C(=O)N[C@H](C(=O)N[C@@H](CCC(=O)O)C(=O)N[C@@H](Cc1ccncc1)C(=O)N[C@@H](CC(C)C)C(=O)N[C@@H](CC(C)C)C(=O)N[C@@H](C)C(=O)N[C@@H](C)C(=O)NCC(=O)N1CCC[C@H]1C(=O)N[C@@H](CO)C(=O)N[C@@H](CO)C(=O)NCC(=O)N[C@@H](C)C(=O)N1CCC[C@H]1C(=O)N1CCC[C@H]1C(=O)N1CCC[C@H]1C(=O)N[C@@H](CO)C(N)=O)C(C)C [Example 62] (H-Y[Aib]EGT[αMeF]ISDYSI[αMeL]LDKK([AEEA-AEEA-γGlu-C20 diacid])HQ[Aib]EFVE[4Pal]LLAAGPSSGAPPPS-NH2)	0.0414
CC[C@H](C)[C@H](NC(=O)[C@H](Cc1ccccc1)NC(=O)[C@@H](NC(=O)CNC(=O)[C@H](CCC(=O)O)NC(=O)C(C)(C)NC(=O)[C@@H](N)Cc1ccc(O)cc1)[C@@H](C)O)C(=O)N[C@@H](CO)C(=O)N[C@@H](CC(=O)O)C(=O)N[C@@H](Cc1ccc(O)cc1)C(=O)N[C@@H](CO)C(=O)N[C@H](C(=O)N[C@@](C)(CC(C)C)C(=O)N[C@@H](CC(C)C)C(=O)N[C@@H](CC(=O)O)C(=O)N[C@@H](CCCCN)C(=O)N[C@@H](CCCCNC(=O)COCCOCCNC(=O)COCCOCCNC(=O)CC[C@H](NC(=O)CCCCCCCCCCCCCCCCCCC(=O)O)C(=O)O)C(=O)N[C@@H](Cc1c[nH]cn1)C(=O)N[C@@H](CCC(N)=O)C(=O)NC(C)(C)C(=O)N[C@@H](CCC(=O)O)C(=O)N[C@@H](Cc1ccccc1)C(=O)N[C@H](C(=O)N[C@@H](CCC(=O)O)C(=O)N[C@@H](Cc1ccc(O)cc1)C(=O)N[C@@H](CC(C)C)C(=O)N[C@@H](CC(C)C)C(=O)N[C@@H](CCC(=O)O)C(=O)N[C@@H](C)C(=O)NCC(=O)N1CCC[C@H]1C(=O)N[C@@H](CO)C(=O)N[C@@H](CO)C(=O)NCC(=O)N[C@@H](C)C(=O)N1CCC[C@H]1C(=O)N1CCC[C@H]1C(=O)N1CCC[C@H]1C(=O)N[C@@H](CO)C(N)=O)C(C)C)[C@@H](C)CC [Example 65] (H-Y[Aib]EGTFISDYSI[αMeL]LDKK([AEEA-AEEA-γGlu-C20 diacid])HQ[Aib]EFVEYLLEAGPSSGAPPPS-NH2)	0.0316
CC[C@H](C)[C@H](NC(=O)[C@H](CO)NC(=O)[C@H](Cc1ccc(O)cc1)NC(=O)[C@H](CC(=O)O)NC(=O)[C@H](CO)NC(=O)[C@@H](NC(=O)[C@](C)(Cc1ccccc1)NC(=O)[C@@H](NC(=O)CNC(=O)[C@H](CCC(=O)O)NC(=O)C(C)(C)NC(=O)[C@@H](N)Cc1ccc(O)cc1)[C@@H](C)O)[C@@H](C)CC)C(=O)N[C@@H](C)C(=O)N[C@@H](CC(C)C)C(=O)N[C@@H](CC(=O)O)C(=O)N[C@@H](CCCCN)C(=O)N[C@@H](CCCCNC(=O)COCCOCCNC(=O)COCCOCCNC(=O)CC[C@H](NC(=O)CCCCCCCCCCCCCCCCCCC(=O)O)C(=O)O)C(=O)N[C@@H](Cc1c[nH]cn1)C(=O)N[C@@H](CCC(N)=O)C(=O)NC(C)(C)C(=O)N[C@@H](CC(=O)O)C(=O)N[C@@H](Cc1ccccc1)C(=O)N[C@H](C(=O)N[C@@H](CCC(=O)O)C(=O)N[C@@H](Cc1ccncc1)C(=O)N[C@@H](CC(C)C)C(=O)N[C@@H](CC(C)C)C(=O)N[C@@H](CCC(=O)O)C(=O)N[C@H](C(=O)NCC(=O)N1CCC[C@H]1C(=O)N[C@@H](CO)C(=O)N[C@@H](CO)C(=O)NCC(=O)N[C@@H](C)C(=O)N1CCC[C@H]1C(=O)N1CCC[C@H]1C(=O)N1CCC[C@H]1C(=O)N[C@@H](CO)C(N)=O)[C@@H](C)O)C(C)C [Example 41] (H-Y[Aib]EGT[αMeF]ISDYSIALDKK([AEEA-AEEA-γGlu-C20 diacid])HQ[Aib]DFVE[4Pal]LLETGPSSGAPPPS-NH2)	0.143
CC[C@H](C)[C@H](NC(=O)[C@H](CO)NC(=O)[C@H](Cc1ccc(O)cc1)NC(=O)[C@H](CC(=O)O)NC(=O)[C@H](CO)NC(=O)[C@@H](NC(=O)[C@](C)(CC(C)C)NC(=O)[C@@H](NC(=O)CNC(=O)[C@H](CCC(=O)O)NC(=O)C(C)(C)NC(=O)[C@@H](N)Cc1ccc(O)cc1)[C@@H](C)O)[C@@H](C)CC)C(=O)N[C@@H](C)C(=O)N[C@@H](CC(C)C)C(=O)N[C@@H](CC(=O)O)C(=O)N[C@@H](CCCCN)C(=O)N[C@@H](CCCCNC(=O)COCCOCCNC(=O)COCCOCCNC(=O)CC[C@H](NC(=O)CCCCCCCCCCCCCCCCCCC(=O)O)C(=O)O)C(=O)N[C@@H](Cc1c[nH]cn1)C(=O)N[C@@H](CCC(N)=O)C(=O)NC(C)(C)C(=O)N[C@@H](CCC(=O)O)C(=O)N[C@@H](Cc1ccccc1)C(=O)N[C@H](C(=O)N[C@@H](CC(N)=O)C(=O)N[C@@H](Cc1ccc(O)cc1)C(=O)N[C@@H](CC(C)C)C(=O)N[C@@H](CC(C)C)C(=O)N[C@@H](C)C(=O)N[C@H](C(=O)NCC(=O)N1CCC[C@H]1C(=O)N[C@@H](CO)C(=O)N[C@@H](CO)C(=O)NCC(=O)N[C@@H](C)C(=O)N1CCC[C@H]1C(=O)N1CCC[C@H]1C(=O)N1CCC[C@H]1C(=O)N[C@@H](CO)C(N)=O)[C@@H](C)O)C(C)C [Example 35] (H-Y[Aib]EGT[αMeL]ISDYSIALDKK([AEEA-AEEA-γGlu-C20 diacid])HQ[Aib]EFVNYLLATGPSSGAPPPS-NH2)	0.0351
